# Experimental data from US12151999B2, “Small molecule compounds having naphthylamine structure and application thereof” (Hangzhou PhecdaMed Co., Ltd., priority 2021, dated 2024).
# How the values were obtained:
# [1] = Mouse pharmacokinetics (PK) test; type: in vivo, ICR mice; details: for AUC(0-inf) / bioavailability / half-life / Cmax / clearance / Vd: ICR, plasma; for bioavailability: read-out: Bioavailability F; for half-life: read-out: Half-life t 1/2 (converted); for Cmax: read-out: Peak blood concentration C max; for clearance: read-out: Eliminate Cl; for Vd: read-out: Steady state apparent volume of distribution Vss
# Procedure: (§1) Take experimental mice and apply an appropriate amount of the test compound to them according to the dosage and administration route shown in the figure. Three experimental mice were selected for three parallel experiments for each compound and each administration method. Numbers 101, 102 and 103 were in the same group, 201, 202 and 203 were in one group, and 301, 302 and 303 were in one group.
# (§2) At the corresponding time point, take 10 μL of rat plasma sample into a centrifuge tube, add 100 μL of methanol:acetonitrile (1:1, v/v), perform […] for 1 min, centrifuged (14000 rpm) for 5 min, and take 50 μL of the supernatant, mixed with water in equal volumes, mixed uniformly by […] and then analyzed.
# (§3) Note: The mice used in the PK experiment are ICR mice of SPF, purchased from Sino-British SIPPR Lab Animal Ltd, Shanghai, China. The rats used in the PK experiments were SD rats of SPF, purchased from Sino-British SIPPR Lab Animal Ltd, Shanghai, China.
# [2] = system: HEK293Tmtkeima cells; test: Functional test of mitophagy inducer (mtKeima imaging, with or without CCCP-induced mitochondrial damage); type: cell-based, Human; details: for Ability to selectively induce autophagy in damaged mitochondria (FIG. 2): 5 uM or 10 uM CCCP versus no CCCP treatment; for The ability of selection to induce autophagy in damaged mitochondria: HEK293Tmtkeima cells, 5 uM or 10 uM CCCP to induce mitochondrial damage, number of cells in which damaged mitophagy occurs/number of all cells
# Procedure: Group 1: Human embryonic kidney transformed cells HEK293Tmtkeima cells were treated with 0 μM, 1.25 μM, 2.5 μM, 5 μM and 10 μM CCCP respectively, and seeded in a 96-well black ELISA PLATE at 1.5*10^5 cells/ml, 100 μL per well. Compound I-2 was added after 25 hours, and 3 replicates were set. At 37° C., under 5% CO2 incubation conditions, photographs were taken every few hours with biotek cytation 5 for a total of 20 hours, with the bright field as the focusing channel, and 9 images were taken per hole, and the images were processed using the instrument software.
# Group 2: Human embryonic kidney transformed cells HEK293Tmtkeima cells were seeded in a 96-well black ELISA PLATE at […], 100 μL per well; compounds I-1˜I-44 and UMI-77 were added after 25 hours, set up 3 replicates; under 37° C., 5% CO2 culture conditions, use biotek every few hours Cytation 5 was used to take photos, a total of 20 hours of shooting. In another group of cells under the same conditions, human embryonic kidney-transformed cells HEK293Tmtkeima cells were seeded in a 96-well black enzyme plate at 1.5*10^5 cells/ml, 100 μl per well; after 24 hours, 5 uM or 10 uM CCCP (Carbonyl cyanide) was first added 3-chlorophenylhydrazone) to induce mitochondrial damage, then add I-1˜I-44, UMI-77 1 hour later, set up 3 repetitions; under 37° C., 5% CO2 culture conditions, pictures were taken every few hours with biotek cytation 5, photographs were taken for 20 hours. Another group of human embryonic kidney transformed cells HEK293Tmtkeima cells was seeded at 1.5*10^5 cells/ml in 96-well black ELISA PLATE at 100 μl per well under the same conditions, 24 hours later 5 uM or 10 uM CCCP (Carbonyl cyanide 3-chlorophenylhydrazone) was first added to induce mitochondrial damage, after 1 hour then add I-1 to I-44, UMI-77 and set up 3 replicates. At 37° C., under 5% CO2 incubation conditions, pictures were taken every few hours with biotek cytation 5, photographs were taken for 20 hours, with the bright field as the focusing channel for both groups, and 9 images were taken per hole, and the images were processed using the instrument software.
# [3] = In vitro plasma stability test; type: in vitro ADME; details: 37° C.
# Procedure: Procaine was selected as the reference compound. The specific method is as follows:
# Incubated in a water bath at 37° C. for 0, 5, 15 and 30 minutes and 1, 2, 4, 6, 10, 24 and 48 hours. Take 200 μL and add 3 times the volume of chromatography grade acetonitrile to precipitate the protein. Vortex shaking for 5 minutes, centrifuge, take 200 μL of the supernatant, HPLC injection and analysis. The liquid phase conditions are the same as before.
# [4] = In vitro liver microsome stability test; type: in vitro ADME; details: in vitro mouse or human liver microsomes
# Procedure: Ketanserin was selected as the reference compound. The specific method is as follows:
# Prepare 0.1MK3PO4 (pH 7.4) buffer and 3×NADPH stock solution (6 mM, 5 mg/mL), and preheat in a 37° C. water bath; configure the test compound and control compound spiking solution: 5 μL compound stock solution ([…]) was added to 95 μL acetonitrile; Configuration of 1.5 μM spiking solution in microsomes (0.75 mg/mL): 1.5 μL of spiking solution and 18.75 μL of liver microparticles solution (20 mg/mL) were added to 479.75 μL of K3PO4 buffer; add 30 μL spiking solution in microsomes to the multi-well plate, and incubated at 37° C. for 5 minutes; add 15 μL NADPH stock solution to each well to start the reaction, and timing; the reaction was terminated by adding 150 μL of acetonitrile solution containing IS at 0 min, 5 min, 15 min, 30 min and 45 min, respectively; shake for 10 min and then centrifuge at 6000 rpm for 15 min; take 80 μL of the supernatant from each well for LC/MS detection and calculate T1/2.
# Note: The mouse and human liver microsomes used in the experiments were purchased from Xenotech.
# [5] = Rat pharmacokinetics (PK) test; type: in vivo, SD rats; details: for bioavailability: read-out: Bioavailability F; for half-life: read-out: Half-life t 1/2 (converted); for Cmax: read-out: Peak blood concentration C max
# Procedure: as §1, §2, §3
# [6] = IP intraperitoneal injection, 3 mg/kg
# [7] = IV intravenous injection, 1 mg/kg
# [8] = SD, plasma, IP intraperitoneal injection (3 mg/kg)
# [9] = SD, plasma, IV intravenous injection (1 mg/kg)
# [10] = SD, plasma, PO oral gavage (10 mg/kg)
PK properties in the mouse PK experiment (in words) [1],"AUC(0-inf) [1, 7]","clearance [1, 7]","Cmax [1, 7]","Vd [1, 7]","AUC(0-inf) ([1]; PO oral gavage, 10 mg/kg)","bioavailability ([1]; PO oral gavage, 10 mg/kg)","Cmax ([1]; PO oral gavage, 10 mg/kg)",SMILES,"half-life [1, 7]","half-life ([1]; PO oral gavage, 10 mg/kg)",Ability to selectively induce autophagy in damaged mitochondria (FIG. 2) [2],The ability of selection to induce autophagy in damaged mitochondria [2],"Plasma stability (half-life, FIG. 4) [3]","Liver microsomal stability (elimination half-life T 1/2, FIG. 3) [4]",other results
good PK properties,429 ng·h/mL,39.3 mL/min/kg,947 ng/mL,1.39 L/kg,1050 ng·h/mL,24.1%,495 ng/mL,CN(c1cc([S+]([O-])CC(=O)O)c(O)c2ccccc12)S(=O)(=O)c1ccc(Br)cc1 (centres unmarked) [Compound I-2],0.98 h,1.37 h,more likely to induce autophagy in damaged mitochondria,++ (moderate ability to selectively induce autophagy in damaged mitochondria (number of cells in which damaged mitophagy occurs/number of all cells in the range of 0.2 to 0.3)),superior plasma stability,superior liver microsomal stability,Induction of mitophagy in cells with undamaged mitochondria (FIG. 1) ([2]; cells treated with 0 μM CCCP): unable to induce autophagy in non-damaged mitochondria; Induction of mitophagy in cells with mitochondrial damage (FIG. 1) ([2]; cells with CCCP (10 μM) versus without CCCP): selectively induces autophagy in damaged mitochondria
rapidly cleared,140 ng·h/mL,131 mL/min/kg,314 ng/mL,18.4 L/kg,162 ng·h/mL,8.64%,102 ng/mL,"O=C(O)CSc1cc(NS(=O)(=O)c2ccc(Br)cc2)c2ccccc2c1O [UMI-77, reference compound]",,,unable to selectively induce autophagy in damaged mitochondria,,unstable in the plasma environment and will be rapidly eliminated,unstable in the liver microsomal environment and will be rapidly eliminated,

SMILES,PK properties in the mouse PK experiment (in words) [1],"AUC(0-inf) [1, 7]","clearance [1, 7]","Cmax [1, 7]","Vd [1, 7]","AUC(0-inf) ([1]; PO oral gavage, 10 mg/kg)","bioavailability ([1]; PO oral gavage, 10 mg/kg)","Cmax ([1]; PO oral gavage, 10 mg/kg)","half-life [1, 7]","half-life ([1]; PO oral gavage, 10 mg/kg)",Ability to selectively induce autophagy in damaged mitochondria (FIG. 2) [2],The ability of selection to induce autophagy in damaged mitochondria [2],"Plasma stability (half-life, FIG. 4) [3]","Liver microsomal stability (elimination half-life T 1/2, FIG. 3) [4]",other results
O=C(O)C[S+]([O-])c1cc(NS(=O)(=O)c2ccc(Br)cc2)c2ccccc2c1O (centres unmarked) [Compound I-1],good PK properties,714 ng·h/mL,24.9 mL/min/kg,832 ng/mL,2.3 L/kg,3800 ng·h/mL,60.4%,1350 ng/mL,1.25 h,1.96 h,more likely to induce autophagy in damaged mitochondria,+++ (strong ability to selectively induce autophagy in damaged mitochondria (number of cells in which damaged mitophagy occurs/number of all cells >0.30)),superior plasma stability,superior liver microsomal stability,"AUC(0-inf) [1, 6]: 4420 ng·h/mL; bioavailability [1, 6]: 247%; half-life [1, 6]: 0.79 h; Cmax [1, 6]: 3740 ng/mL; PK properties in the rat PK experiment (in words) [5]: good PK properties; AUC(0-inf) [5, 8]: 18300 ng·h/mL; bioavailability [5, 8]: 165%; half-life [5, 8]: 3.34 h; Cmax [5, 8]: 5440 ng/mL; AUC(0-inf) [5, 9]: 3720 ng·h/mL; clearance ([5]; SD, plasma, IV intravenous injection (1 mg/kg), read-out: Eliminate Cl): 4.91 mL/min/kg; half-life [5, 9]: 1.93 h; Cmax [5, 9]: 1900 ng/mL; Vd ([5]; SD, plasma, IV intravenous injection (1 mg/kg), read-out: Steady state apparent volume of distribution V ss): 0.63 L/kg; AUC(0-inf) [5, 10]: 6070 ng·h/mL; bioavailability [5, 10]: 16.3%; half-life [5, 10]: 0.96 h; Cmax [5, 10]: 1550 ng/mL"
